Results as given in patent publication US8163718B2, “Nucleoside analogues containing phosphonate or phosphonamide groups” (Gilead Sciences, Inc., priority 2008, dated 2012).

Tested on: HCT-15
Assay: Cytostatic cell culture assay (GI50), SRB
Assay type: cell-based
Conditions: Homo sapiens, HCT-15, 120 h; 5 days incubation
Text: (§1) The assay is based on quantification of cell counts by a colorimetric detection of the cell associated proteins. The assay relies on the ability of sulforhodamine B (SRB) to bind to protein components of cells that have been fixed to tissue-culture plates by trichloroacetic acid (TCA). SRB is a bright-pink aminoxanthene dye with two sulfonic groups that bind to basic amino-acid residues under mild acidic conditions, and dissociate under basic conditions. As the binding of SRB is stoichiometric, the amount of dye extracted from stained cells is directly proportional to the cell mass.
(§2) Cell lines: All cell lines were obtained from ATCC (Manassas, Va.). Cultivation media containing Glutamax, and trypsin were purchased from Invitrogen (Carlsbad, Calif.). Doxorubicin, Clofarabine, TCA and SRB were from Sigma-Aldrich (St. Louis, Mo.). Gemcitabine was obtained from Moravek Biochemicals (Brea, Calif.)
(§3) • 1. Trypsinize the sub-confluent cells, count them, and adjust the cell concentrations according to the cell counts listed in Table 1. • 2. Distribute the cells into the 96-well plates in 150 μL of media. Incubate the plates overnight in humidified CO2 incubator at 37° C. • 3. Fix one plate of each cell line with TCA. Discard the cultivation media from the plates by flicking them gently and add 100 ul cold 10% (vol/vol) TCA to each well. Incubate the plates at 4 degree refrigerator for 1 hour. Discard TCA from the plates by flicking them gently. Rinse plates four times in a washing basin containing tap water. Store the plates at room temperature. These plates represent cell counts on day zero. • 4. Prepare a set of medium solutions containing various concentrations of tested compounds by making 5-fold serial dilutions in 96-well plate. Add 50 μL of the diluted compounds per well. Include controls with untreated cells and cells treated with doxorubicin, clofarabine and gemcitabine. • 5. Incubate the plates for 5 days at 37° C. • 6. Fix the plates with TCA. Discard the cultivation media from the plates by flicking them gently and add 100 ul cold 10% (vol/vol) TCA to each well. Incubate the plates at 4 degree refrigerator for 1 hour. Discard TCA from the plates by flicking them gently. Rinse plates four times in a washing basin containing tap water. • 7. Remove excess water by tapping the plates face down, gently on a paper towel. Allow the plates to air-dry at room temperature. • 8. Add 100 ul of 0.057% SRB solution in 1% (vol/vol) acetic acid to each well of the plates fixed with TCA on day zero and five. Leave at room temperature for 30 minutes. • 9. Flick the plates gently to discard SRB. Rinse the plates four times with 1% (vol/vol) Acetic Acid. • 10. Store the plates at 37 degree incubator to facilitate faster drying. • 11. Once the plates are completely dry, add 200 ul of 10 mM Tris base solution (pH 10.5) to each well. Leave at room temperature for 30 minutes for SRB to solubilize. • 12. Measure the OD at 500 nm in a microplate reader • 13. Calculate the percentage of cell-growth inhibition using the next formula: % of control cell growth=100×(ODsample−mean ODday0)/(ODneg control−mean ODday0)
(§4) For GI50 determination, plot a dose-response curve between the compound concentration and percent of growth inhibition. GI50 values can be derived by fitting dose-response curves using sigmoidal dose response equation.

| SMILES | GI50 |
| --- | --- |
| COc1nc(N)nc2c1ncn2CCOCP(=O)(N[C@@H](C)C(=O)OC(C)C)N[C@@H](C)C(=O)OC(C)C [Example 29] | > 10 µM |
| CCCOc1nc(N)nc2c1ncn2CCOCP(=O)(N[C@@H](Cc1ccccc1)C(=O)OCC)Oc1ccccc1 (stereo partly shown) [Example 55] | 0.815 µM |
| COCCOc1nc(N)nc2c1ncn2CCOCP(=O)(O)O [Example 11, {2-[2-Amino-6-(2-methoxy-ethoxy)-purin-9-yl]-ethoxymethyl}-phosphonic acid] | > 10 µM |

Now from value to compound:

| GI50 | SMILES |
| --- | --- |
| 9.1 µM | CCOC(=O)[C@@H]1CCCC1P(=O)(COCCn1cnc2c(OC3CC3)nc(N)nc21)N1CCC[C@H]1C(=O)OCC (stereo partly shown) [Example 44] |
| 0.869 µM | CCCCOC(=O)[C@H](C)NP(=O)(COCCn1cnc2c(OCCCC)nc(N)nc21)N[C@@H](C)C(=O)OCCCC [Example 36] |
| 1.52 µM | CCCCOC(=O)[C@H](C)NP(=O)(COCCn1cnc2c(OC3CC3)nc(N)nc21)N[C@@H](C)C(=O)OCCCC [Example 43] |

Tested on: PC3
Assay: Cytostatic cell culture assay (GI50), SRB
Assay type: cell-based
Conditions: Homo sapiens, PC-3, 120 h; 5 days incubation
Text: as §1, §2, §3, §4

| SMILES | GI50 |
| --- | --- |
| COc1nc(N)nc2c1ncn2CCOCP(=O)(N[C@@H](C)C(=O)OC(C)C)N[C@@H](C)C(=O)OC(C)C [Example 29] | 0.325 µM |
| CCCOc1nc(N)nc2c1ncn2CCOCP(=O)(N[C@@H](Cc1ccccc1)C(=O)OCC)Oc1ccccc1 (stereo partly shown) [Example 55] | 0.059 µM |
| COCCOc1nc(N)nc2c1ncn2CCOCP(=O)(O)O [Example 11, {2-[2-Amino-6-(2-methoxy-ethoxy)-purin-9-yl]-ethoxymethyl}-phosphonic acid] | 3.76 µM |

More lines, now with the values ahead:

| GI50 | SMILES |
| --- | --- |
| 0.183 µM | CCOC(=O)[C@@H]1CCCC1P(=O)(COCCn1cnc2c(OC3CC3)nc(N)nc21)N1CCC[C@H]1C(=O)OCC (stereo partly shown) [Example 44] |
| 0.003 µM | CCCCOC(=O)[C@H](C)NP(=O)(COCCn1cnc2c(OCCCC)nc(N)nc21)N[C@@H](C)C(=O)OCCCC [Example 36] |
| 0.032 µM | CCCCOC(=O)[C@H](C)NP(=O)(COCCn1cnc2c(OC3CC3)nc(N)nc21)N[C@@H](C)C(=O)OCCCC [Example 43] |

Tested on: BT-549
Assay: Cytostatic cell culture assay (GI50), SRB
Assay type: cell-based
Conditions: Homo sapiens, BT-549, 120 h; 5 days incubation
Text: as §1, §2, §3, §4

| SMILES | GI50 |
| --- | --- |
| COc1nc(N)nc2c1ncn2CCOCP(=O)(N[C@@H](C)C(=O)OC(C)C)N[C@@H](C)C(=O)OC(C)C [Example 29] | 1.11 µM |
| CCCOc1nc(N)nc2c1ncn2CCOCP(=O)(N[C@@H](Cc1ccccc1)C(=O)OCC)Oc1ccccc1 (stereo partly shown) [Example 55] | 0.756 µM |
| COCCOc1nc(N)nc2c1ncn2CCOCP(=O)(O)O [Example 11, {2-[2-Amino-6-(2-methoxy-ethoxy)-purin-9-yl]-ethoxymethyl}-phosphonic acid] | > 10 µM |

The next lines start with the values.

| GI50 | SMILES |
| --- | --- |
| 0.016 µM | CCOC(=O)[C@@H]1CCCC1P(=O)(COCCn1cnc2c(OC3CC3)nc(N)nc21)N1CCC[C@H]1C(=O)OCC (stereo partly shown) [Example 44] |
| 0.12 µM | CCCCOC(=O)[C@H](C)NP(=O)(COCCn1cnc2c(OCCCC)nc(N)nc21)N[C@@H](C)C(=O)OCCCC [Example 36] |
| 0.017 µM | CCCCOC(=O)[C@H](C)NP(=O)(COCCn1cnc2c(OC3CC3)nc(N)nc21)N[C@@H](C)C(=O)OCCCC [Example 43] |

Tested on: NCI-H23
Assay: Cytostatic cell culture assay (GI50), SRB
Assay type: cell-based
Conditions: Homo sapiens, NCI-H23, 120 h; 5 days incubation
Text: as §1, §2, §3, §4

| SMILES | GI50 |
| --- | --- |
| COc1nc(N)nc2c1ncn2CCOCP(=O)(N[C@@H](C)C(=O)OC(C)C)N[C@@H](C)C(=O)OC(C)C [Example 29] | 0.032 µM |
| CCCOc1nc(N)nc2c1ncn2CCOCP(=O)(N[C@@H](Cc1ccccc1)C(=O)OCC)Oc1ccccc1 (stereo partly shown) [Example 55] | 0.009 µM |
| COCCOc1nc(N)nc2c1ncn2CCOCP(=O)(O)O [Example 11, {2-[2-Amino-6-(2-methoxy-ethoxy)-purin-9-yl]-ethoxymethyl}-phosphonic acid] | 1.98 µM |

The remaining lines, values ahead:

| GI50 | SMILES |
| --- | --- |
| 0.227 µM | CCOC(=O)[C@@H]1CCCC1P(=O)(COCCn1cnc2c(OC3CC3)nc(N)nc21)N1CCC[C@H]1C(=O)OCC (stereo partly shown) [Example 44] |
| 0.002 µM | CCCCOC(=O)[C@H](C)NP(=O)(COCCn1cnc2c(OCCCC)nc(N)nc21)N[C@@H](C)C(=O)OCCCC [Example 36] |
| 0.001 µM | CCCCOC(=O)[C@H](C)NP(=O)(COCCn1cnc2c(OC3CC3)nc(N)nc21)N[C@@H](C)C(=O)OCCCC [Example 43] |

Tested on: HCT-116
Assay: Cytostatic cell culture assay (GI50), SRB
Assay type: cell-based
Conditions: Homo sapiens, HCT-116, 120 h; 5 days incubation
Text: as §1, §2, §3, §4

| SMILES | GI50 |
| --- | --- |
| COc1nc(N)nc2c1ncn2CCOCP(=O)(N[C@@H](C)C(=O)OC(C)C)N[C@@H](C)C(=O)OC(C)C [Example 29] | 0.988 µM |
| CCCOc1nc(N)nc2c1ncn2CCOCP(=O)(N[C@@H](Cc1ccccc1)C(=O)OCC)Oc1ccccc1 (stereo partly shown) [Example 55] | 0.047 µM |
| COCCOc1nc(N)nc2c1ncn2CCOCP(=O)(O)O [Example 11, {2-[2-Amino-6-(2-methoxy-ethoxy)-purin-9-yl]-ethoxymethyl}-phosphonic acid] | 11 µM |

The next lines start with the values.

| GI50 | SMILES |
| --- | --- |
| 0.154 µM | CCOC(=O)[C@@H]1CCCC1P(=O)(COCCn1cnc2c(OC3CC3)nc(N)nc21)N1CCC[C@H]1C(=O)OCC (stereo partly shown) [Example 44] |
| 0.007 µM | CCCCOC(=O)[C@H](C)NP(=O)(COCCn1cnc2c(OCCCC)nc(N)nc21)N[C@@H](C)C(=O)OCCCC [Example 36] |
| 0.011 µM | CCCCOC(=O)[C@H](C)NP(=O)(COCCn1cnc2c(OC3CC3)nc(N)nc21)N[C@@H](C)C(=O)OCCCC [Example 43] |

Tested on: A549
Assay: Cytostatic cell culture assay (GI50), SRB
Assay type: cell-based
Conditions: Homo sapiens, A549, 120 h; 5 days incubation
Text: as §1, §2, §3, §4

| SMILES | GI50 |
| --- | --- |
| COc1nc(N)nc2c1ncn2CCOCP(=O)(N[C@@H](C)C(=O)OC(C)C)N[C@@H](C)C(=O)OC(C)C [Example 29] | 0.387 µM |
| CCCOc1nc(N)nc2c1ncn2CCOCP(=O)(N[C@@H](Cc1ccccc1)C(=O)OCC)Oc1ccccc1 (stereo partly shown) [Example 55] | 0.08 µM |
| COCCOc1nc(N)nc2c1ncn2CCOCP(=O)(O)O [Example 11, {2-[2-Amino-6-(2-methoxy-ethoxy)-purin-9-yl]-ethoxymethyl}-phosphonic acid] | 11 µM |

Other lines, results leading:

| GI50 | SMILES |
| --- | --- |
| 1.25 µM | CCOC(=O)[C@@H]1CCCC1P(=O)(COCCn1cnc2c(OC3CC3)nc(N)nc21)N1CCC[C@H]1C(=O)OCC (stereo partly shown) [Example 44] |
| 0.013 µM | CCCCOC(=O)[C@H](C)NP(=O)(COCCn1cnc2c(OCCCC)nc(N)nc21)N[C@@H](C)C(=O)OCCCC [Example 36] |
| 0.102 µM | CCCCOC(=O)[C@H](C)NP(=O)(COCCn1cnc2c(OC3CC3)nc(N)nc21)N[C@@H](C)C(=O)OCCCC [Example 43] |

Tested on: Hs-578
Assay: Cytostatic cell culture assay (GI50), SRB
Assay type: cell-based
Conditions: Hs578, 120 h; 5 days incubation
Text: as §1, §2, §3, §4

| SMILES | GI50 |
| --- | --- |
| COc1nc(N)nc2c1ncn2CCOCP(=O)(N[C@@H](C)C(=O)OC(C)C)N[C@@H](C)C(=O)OC(C)C [Example 29] | 0.378 µM |
| CCCOc1nc(N)nc2c1ncn2CCOCP(=O)(N[C@@H](Cc1ccccc1)C(=O)OCC)Oc1ccccc1 (stereo partly shown) [Example 55] | 0.149 µM |
| COCCOc1nc(N)nc2c1ncn2CCOCP(=O)(O)O [Example 11, {2-[2-Amino-6-(2-methoxy-ethoxy)-purin-9-yl]-ethoxymethyl}-phosphonic acid] | 5.1 µM |
| CCOC(=O)[C@@H]1CCCC1P(=O)(COCCn1cnc2c(OC3CC3)nc(N)nc21)N1CCC[C@H]1C(=O)OCC (stereo partly shown) [Example 44] | 0.026 µM |
| CCCCOC(=O)[C@H](C)NP(=O)(COCCn1cnc2c(OCCCC)nc(N)nc21)N[C@@H](C)C(=O)OCCCC [Example 36] | 0.011 µM |
| CCCCOC(=O)[C@H](C)NP(=O)(COCCn1cnc2c(OC3CC3)nc(N)nc21)N[C@@H](C)C(=O)OCCCC [Example 43] | 0.032 µM |

Tested on: Du-145
Assay: Cytostatic cell culture assay (GI50), SRB
Assay type: cell-based
Conditions: Homo sapiens, DU-145, 120 h; 5 days incubation
Text: as §1, §2, §3, §4

| GI50 | SMILES |
| --- | --- |
| 0.029 µM | COc1nc(N)nc2c1ncn2CCOCP(=O)(N[C@@H](C)C(=O)OC(C)C)N[C@@H](C)C(=O)OC(C)C [Example 29] |
| 0.805 µM | COCCOc1nc(N)nc2c1ncn2CCOCP(=O)(O)O [Example 11, {2-[2-Amino-6-(2-methoxy-ethoxy)-purin-9-yl]-ethoxymethyl}-phosphonic acid] |
| 0.003 µM | CCOC(=O)[C@@H]1CCCC1P(=O)(COCCn1cnc2c(OC3CC3)nc(N)nc21)N1CCC[C@H]1C(=O)OCC (stereo partly shown) [Example 44] |

| SMILES | GI50 |
| --- | --- |
| CCCOc1nc(N)nc2c1ncn2CCOCP(=O)(N[C@@H](Cc1ccccc1)C(=O)OCC)Oc1ccccc1 (stereo partly shown) [Example 55] | 0.004 µM |
